Measured values published in a compilation of properties of binary mixtures (doi:10.1016/j.molliq.2020.112481).

Experiment: xn = mol fraction of the nth substance listed
Details: 100 kPa

CCCC[n+]1ccn(C)c1.O=S(=O)([O-])C(F)(F)F + OCCO
Details | speed of sound [m/s] | viscosity [mPa·s]
298.15 K, x1 = 0.1936 | 1517.5 | 17.41
298.15 K, x1 = 0.2985 | 1478.8 | 20.69
298.15 K, x1 = 0.3912 | 1456.1 | 23.59
298.15 K, x1 = 0.4999 | 1437.2 | 26.6
298.15 K, x1 = 0.6055 | 1423.5 | 29.8
298.15 K, x1 = 0.7966 | 1410.5 | 42
298.15 K, x1 = 0.9035 | 1404.8 | 57.9
298.15 K, x1 = 1 | 1393.2 | 82.4
303.15 K, x1 = 0.1936 | 1505.9 | 14.07
303.15 K, x1 = 0.2985 | 1467.3 | 16.81
303.15 K, x1 = 0.3912 | 1444.6 | 19.28
303.15 K, x1 = 0.6055 | 1412.2 | 24.5
303.15 K, x1 = 0.7966 | 1399.2 | 34.3
303.15 K, x1 = 0.9035 | 1393.6 | 47
303.15 K, x1 = 1 | 1382.8 | 66.7
308.15 K, x1 = 0.0926 | 1551.3 | 10.51
308.15 K, x1 = 0.1936 | 1494.4 | 11.7
308.15 K, x1 = 0.3912 | 1433.2 | 15.95
308.15 K, x1 = 0.6055 | 1400.9 | 20.86
308.15 K, x1 = 0.9035 | 1382.5 | 38.6
308.15 K, x1 = 1 | 1371.7 | 52.9
313.15 K, x1 = 0.0926 | 1539.6 | 8.82
313.15 K, x1 = 0.1936 | 1482.8 | 9.82
313.15 K, x1 = 0.3912 | 1421.9 | 13.48
313.15 K, x1 = 0.6055 | 1389.8 | 17.79
313.15 K, x1 = 0.7966 | 1376.9 | 24.6
313.15 K, x1 = 0.9035 | 1371.5 | 32.3
313.15 K, x1 = 1 | 1360.7 | 43.7
318.15 K, x1 = 0.1936 | 1471.4 | 8.3
318.15 K, x1 = 0.2985 | 1433.2 | 9.91
318.15 K, x1 = 0.3912 | 1410.7 | 11.51
318.15 K, x1 = 0.6055 | 1378.7 | 15.37
318.15 K, x1 = 0.6922 | 1371.2 | 17.42
318.15 K, x1 = 0.7966 | 1365.9 | 21.09
318.15 K, x1 = 0.9035 | 1360.5 | 27.3
318.15 K, x1 = 1 | 1349.9 | 36.3
323.15 K, x1 = 0.0926 | 1516.4 | 6.2
323.15 K, x1 = 0.2985 | 1421.9 | 8.4
323.15 K, x1 = 0.4999 | 1381 | 11.65
323.15 K, x1 = 0.6055 | 1367.7 | 13.42
323.15 K, x1 = 0.6922 | 1360.3 | 15.17
323.15 K, x1 = 0.9035 | 1349.7 | 23.24
323.15 K, x1 = 1 | 1338.8 | 30.6

OCCO + CCCC[n+]1ccn(C)c1.O=S(=O)([O-])C(F)(F)F
x2 = 0
Details | speed of sound [m/s] | viscosity [mPa·s]
298.15 K | 1655 | 16.39
308.15 K | 1631.5 | 11.16
313.15 K | 1619.7 | 9.34
318.15 K | 1607.9 | 7.91
323.15 K | 1596.1 | 6.75
